Data from US20060069132A1, “Azolecarboxamide herbicides” (priority 2004, published 2006).

Key:
[1] = test system: barnyardgrass; assay: Test B pre-/postemergence herbicide test; type: in vivo, Echinochloa crus-galli; details: 500 g ai/ha
Text: (§1) Seeds selected from barnyardgrass (Echinochloa crus-galli (L.) Beauv.), Surinam grass (Urochloa decumbens (Staph) R. D. Webster, previously named Brachiaria decumbens Stapf), cocklebur (Xanthium strumarium L.), corn (Zea mays L.), large crabgrass (Digitaria sanguinalis (L.) Scop.), giant foxtail (Setaria faberi Herim.), lambsquarters (Chenopodium album L.), morningglory (Ipomoea coccinea L.), pigweed (Amaranthus retroflexus L.), rice (Oryza sativa L.) and velvetleaf (Abutilon theophrasti Medik.) were planted and treated preemergence with test chemicals formulated in a non-phytotoxic solvent mixture which included a surfactant.
(§2) At the same time, plants selected from these crop and weed species and also blackgrass (Alopecurus myosuroides Huds.), wheat (Triticum aestivum L.) and wild oat (Avena fatua L.) were treated with postemergence applications of test chemicals formulated in the same manner. Plants ranged in height from 2 to 18 cm (1- to 4-leaf stage) for postemergence treatments. Plant species in the flooded paddy test consisted of rice (Oryza sativa L.), small flower umbrella sedge (Cyperus difformis L.), ducksalad (Heteranthera limosa (Sw.) Willd.) and barnyardgrass (Echinochloa crus-galli (L.) Beauv.) grown to the 2-leaf stage for testing. Treated plants and controls were maintained in a greenhouse for 13 to 15 days, after which time all species were compared to controls and visually evaluated. Plant response ratings, summarized in Table B, are based on a scale of 0 to 100 where 0 is no effect and 100 is complete control. A dash (-) response means no test result.

[2] = test system: Surinam grass; assay: Test B pre-/postemergence herbicide test; type: in vivo, Urochloa decumbens; details: 500 g ai/ha
Text: as §1, §2

[3] = test system: cocklebur; assay: Test B pre-/postemergence herbicide test; type: in vivo, Xanthium strumarium; details: 500 g ai/ha
Text: as §1, §2

[4] = test system: corn; assay: Test B pre-/postemergence herbicide test; type: in vivo, Zea mays; details: 500 g ai/ha
Text: as §1, §2

[5] = test system: large crabgrass; assay: Test B pre-/postemergence herbicide test; type: in vivo, Digitaria sanguinalis; details: 500 g ai/ha
Text: as §1, §2

[6] = test system: giant foxtail; assay: Test B pre-/postemergence herbicide test; type: in vivo, Setaria faberi; details: 500 g ai/ha
Text: as §1, §2

[7] = test system: lambsquarters; assay: Test B pre-/postemergence herbicide test; type: in vivo, Chenopodium album; details: 500 g ai/ha
Text: as §1, §2

[8] = test system: morningglory; assay: Test B pre-/postemergence herbicide test; type: in vivo, Ipomoea coccinea; details: 500 g ai/ha
Text: as §1, §2

[9] = test system: pigweed; assay: Test B pre-/postemergence herbicide test; type: in vivo, Amaranthus retroflexus; details: 500 g ai/ha
Text: as §1, §2

[10] = test system: velvetleaf; assay: Test B pre-/postemergence herbicide test; type: in vivo, Abutilon theophrasti; details: 500 g ai/ha
Text: as §1, §2

[11] = test system: blackgrass; assay: Test B postemergence herbicide test; type: in vivo, Alopecurus myosuroides; details: Postemergence, 500 g ai/ha; visual rating after 13 to 15 days, scale 0 (no effect) to 100 (complete control)
Method: as §2

[12] = test system: wheat; assay: Test B postemergence herbicide test; type: in vivo, Triticum aestivum; details: Postemergence, 500 g ai/ha; visual rating after 13 to 15 days, scale 0 (no effect) to 100 (complete control)
Method: as §2

[13] = test system: wild oat; assay: Test B postemergence herbicide test; type: in vivo, Avena fatua; details: Postemergence, 500 g ai/ha; visual rating after 13 to 15 days, scale 0 (no effect) to 100 (complete control)
Method: as §2

[14] = test system: rice; assay: Test B flooded paddy test; type: in vivo, Oryza sativa; details: 1000 g ai/ha, visual rating, scale 0 to 100 (0 no effect, 100 complete control), 13 to 15 days
Method: as §2

[15] = test system: small flower umbrella sedge; assay: Test B flooded paddy test; type: in vivo, Cyperus difformis; details: 1000 g ai/ha, visual rating, scale 0 to 100 (0 no effect, 100 complete control), 13 to 15 days
Method: as §2

[16] = test system: ducksalad; assay: Test B flooded paddy test; type: in vivo, Heteranthera limosa; details: 1000 g ai/ha, visual rating, scale 0 to 100 (0 no effect, 100 complete control), 13 to 15 days
Method: as §2

[17] = test system: barnyardgrass; assay: Test B flooded paddy test; type: in vivo, Echinochloa crus-galli; details: 1000 g ai/ha, visual rating, scale 0 to 100 (0 no effect, 100 complete control), 13 to 15 days
Method: as §2

[18] = test system: barnyardgrass; assay: Test A pre-/postemergence herbicide test; type: in vivo, Echinochloa crus-galli
Text: (§3) Seeds of plant species selected from barnyardgrass (Echinochloa crus-galli (L.) Beauv.), downy bromegrass (Bromus tectorum L.), large crabgrass (Digitaria sanguinalis (L.) Scop.), giant foxtail (Setaria faberi Herrm.), morningglory (Ipomoea spp.), redroot pigweed (Amaranthus retroflexus L.) and velvetleaf (Abutilon theophrasti Medik.) were planted into a sandy loam soil and treated preemergence with a directed soil spray using test chemicals formulated in a non-phytotoxic solvent mixture which included a surfactant. At the same time plants selected from these species were also treated postemergence by spraying to runoff with test chemicals formulated.
(§4) Plants ranged in height from 2 to 10 cm and were in the one- to two-leaf stage for the postemergence treatment. Treated plants and untreated controls were maintained in a greenhouse for approximately ten days, after which time all treated plants were compared to untreated controls and visually evaluated for injury. Plant response ratings, summarized in Table A, are based on a 0 to 100 scale where 0 is no effect and 100 is complete control. A dash (-) response means no test results.

[19] = test system: large crabgrass; assay: Test A pre-/postemergence herbicide test; type: in vivo, Digitaria sanguinalis
Text: as §3, §4

[20] = test system: giant foxtail; assay: Test A pre-/postemergence herbicide test; type: in vivo, Setaria faberi
Text: as §3, §4

[21] = test system: morningglory; assay: Test A pre-/postemergence herbicide test; type: in vivo, Ipomoea spp.
Text: as §3, §4

[22] = test system: redroot pigweed; assay: Test A pre-/postemergence herbicide test; type: in vivo, Amaranthus retroflexus
Text: as §3, §4

[23] = test system: velvetleaf; assay: Test A pre-/postemergence herbicide test; type: in vivo, Abutilon theophrasti
Text: as §3, §4

[24] = Postemergence, visual rating after 13 to 15 days, scale 0 (no effect) to 100 (complete control)
[25] = Postemergence, 500 g ai/ha, 0 to 100 scale, 0 no effect, 100 complete control
[26] = Postemergence, 2000 g ai/ha, 0 to 100 scale, 0 no effect, 100 complete control
[27] = Preemergence, 500 g ai/ha, visual rating, 0 to 100 scale (0 no effect, 100 complete control)
[28] = Preemergence, 2000 g ai/ha, visual rating, 0 to 100 scale (0 no effect, 100 complete control)
[29] = preemergence, 500 g ai/ha, visual injury, 0 to 100 scale (0 no effect, 100 complete control)
[30] = Postemergence, 125 g ai/ha, 0 to 100 scale, 0 no effect, 100 complete control
[31] = preemergence, 125 g ai/ha, visual injury, 0 to 100 scale (0 no effect, 100 complete control)

CCNC(=O)c1cccc(NC(=O)c2cc(C(C)(C)C)nn2CC(C)C)c1 [Compound 42]
Plant response rating, Barnyardgrass [1, 24]: 20 | Barnyardgrass plant response rating ([1]; Preemergence, scale 0 to 100): 30 | Plant response rating, Surinam Grass [2, 24]: 20 | Surinam Grass plant response rating ([2]; Preemergence, scale 0 to 100): 20 | Plant response rating, Cocklebur [3, 24]: 20 | Cocklebur plant response rating ([3]; Preemergence, scale 0 to 100): 0 | Plant response rating, Corn [4, 24]: 20 | Corn plant response rating ([4]; Preemergence, scale 0 to 100): 0 | Plant response rating, Crabgrass, Large [5, 24]: 70 | Crabgrass, Large plant response rating ([5]; Preemergence, scale 0 to 100): 70 | Plant response rating, Foxtail, Giant [6, 24]: 10 | Foxtail, Giant plant response rating ([6]; Preemergence, scale 0 to 100): 10 | Plant response rating, Lambsquarters [7, 24]: 70 | Lambsquarters plant response rating ([7]; Preemergence, scale 0 to 100): 80 | Plant response rating, Morningglory [8, 24]: 50 | Morningglory plant response rating ([8]; Preemergence, scale 0 to 100): 10 | Plant response rating, Pigweed [9, 24]: 70 | Pigweed plant response rating ([9]; Preemergence, scale 0 to 100): 40 | Plant response rating, Velvetleaf [10, 24]: 60 | Velvetleaf plant response rating ([10]; Preemergence, scale 0 to 100): 10 | Plant response rating, Blackgrass [11]: 10 | Plant response rating, Wheat [12]: 20 | Plant response rating, Oat, Wild [13]: 20 | Rice plant response rating [14]: 0 | Sedge, Umbrella plant response rating [15]: 50 | Ducksalad plant response rating [16]: 50 | Barnyardgrass plant response rating [17]: 0

Cn1nc(C(C)(C)C)cc1C(=O)Nc1cccc2c1CCCC2=NO [Compound 116]
Barnyardgrass plant response rating [18, 25]: 0 | Plant response rating, Barnyardgrass [18, 26]: 25 | Barnyardgrass plant response rating [18, 27]: 35 | Barnyardgrass plant response rating [18, 28]: 70 | Crabgrass, Large plant response rating [19, 25]: 0 | Plant response rating, Crabgrass, Large [19, 26]: 10 | Crabgrass, Large plant response rating [19, 27]: 45 | Crabgrass, Large plant response rating [19, 28]: 80 | Foxtail, Giant plant response rating [20, 25]: 0 | Plant response rating, Foxtail, Giant [20, 26]: 0 | Foxtail, Giant plant response rating [20, 27]: 20 | Foxtail, Giant plant response rating [20, 28]: 35 | Morningglory plant response rating [21, 25]: 0 | Plant response rating, Morningglory [21, 26]: 0 | Morningglory plant response rating [21, 27]: 0 | Morningglory plant response rating [21, 28]: 10 | Pigweed plant response rating [22, 25]: 0 | Plant response rating, Pigweed [22, 26]: 0 | Pigweed plant response rating [22, 27]: 0 | Pigweed plant response rating [22, 28]: 0 | Velvetleaf plant response rating [23, 25]: 0 | Plant response rating, Velvetleaf [23, 26]: 0 | Velvetleaf plant response rating [23, 27]: 0 | Velvetleaf plant response rating [23, 28]: 0

CCNC(=O)c1cccc(NC(=O)c2cn(CC)nc2C(F)(F)F)c1 [Compound 172]
Barnyardgrass plant response rating [18, 25]: 0 | Plant response rating, Barnyardgrass [18, 26]: 0 | Barnyardgrass plant response rating [18, 28]: 0 | Barnyardgrass plant response rating [18, 29]: 0 | Crabgrass, Large plant response rating [19, 25]: 0 | Plant response rating, Crabgrass, Large [19, 26]: 0 | Crabgrass, Large plant response rating [19, 28]: 0 | Crabgrass, Large plant response rating [19, 29]: 0 | Foxtail, Giant plant response rating [20, 25]: 0 | Plant response rating, Foxtail, Giant [20, 26]: 0 | Foxtail, Giant plant response rating [20, 28]: 0 | Foxtail, Giant plant response rating [20, 29]: 0 | Morningglory plant response rating [21, 25]: 10 | Plant response rating, Morningglory [21, 26]: 10 | Morningglory plant response rating [21, 28]: 0 | Morningglory plant response rating [21, 29]: 0 | Pigweed plant response rating [22, 25]: 25 | Plant response rating, Pigweed [22, 26]: 60 | Pigweed plant response rating [22, 28]: 40 | Pigweed plant response rating [22, 29]: 0 | Velvetleaf plant response rating [23, 25]: 5 | Plant response rating, Velvetleaf [23, 26]: 15 | Velvetleaf plant response rating [23, 28]: 0 | Velvetleaf plant response rating [23, 29]: 0

CCOC(=O)c1ccc(F)c(NC(=O)c2nc(C(C)(C)C)nn2CC)c1 [Compound 451]
Barnyardgrass plant response rating [18, 30]: 10 | Barnyardgrass plant response rating [18, 25]: 20 | Barnyardgrass plant response rating [18, 31]: 15 | Barnyardgrass plant response rating [18, 29]: 55 | Crabgrass, Large plant response rating [19, 30]: 10 | Crabgrass, Large plant response rating [19, 25]: 30 | Crabgrass, Large plant response rating [19, 31]: 5 | Crabgrass, Large plant response rating [19, 29]: 25 | Foxtail, Giant plant response rating [20, 30]: 10 | Foxtail, Giant plant response rating [20, 25]: 20 | Foxtail, Giant plant response rating [20, 31]: 5 | Foxtail, Giant plant response rating [20, 29]: 45 | Morningglory plant response rating [21, 30]: 20 | Morningglory plant response rating [21, 25]: 20 | Morningglory plant response rating [21, 31]: 0 | Morningglory plant response rating [21, 29]: 5 | Pigweed plant response rating [22, 30]: 10 | Pigweed plant response rating [22, 25]: 50 | Pigweed plant response rating [22, 31]: 0 | Pigweed plant response rating [22, 29]: 0 | Velvetleaf plant response rating [23, 30]: 20 | Velvetleaf plant response rating [23, 25]: 30 | Velvetleaf plant response rating [23, 31]: 0 | Velvetleaf plant response rating [23, 29]: 20

CCNC(=O)c1ccnc(NC(=O)c2cn(C(C)(C)C)nc2CC)c1 [Compound 452]
Barnyardgrass plant response rating [18, 30]: 10 | Barnyardgrass plant response rating [18, 25]: 35 | Barnyardgrass plant response rating [18, 31]: 15 | Barnyardgrass plant response rating [18, 29]: 70 | Crabgrass, Large plant response rating [19, 30]: 10 | Crabgrass, Large plant response rating [19, 25]: 20 | Crabgrass, Large plant response rating [19, 31]: 20 | Crabgrass, Large plant response rating [19, 29]: 45 | Foxtail, Giant plant response rating [20, 30]: 10 | Foxtail, Giant plant response rating [20, 25]: 25 | Foxtail, Giant plant response rating [20, 31]: 5 | Foxtail, Giant plant response rating [20, 29]: 45 | Morningglory plant response rating [21, 30]: 20 | Morningglory plant response rating [21, 25]: 30 | Morningglory plant response rating [21, 31]: 0 | Morningglory plant response rating [21, 29]: 10 | Pigweed plant response rating [22, 30]: 20 | Pigweed plant response rating [22, 25]: 70 | Pigweed plant response rating [22, 31]: 10 | Pigweed plant response rating [22, 29]: 65 | Velvetleaf plant response rating [23, 30]: 20 | Velvetleaf plant response rating [23, 25]: 30 | Velvetleaf plant response rating [23, 31]: 0 | Velvetleaf plant response rating [23, 29]: 5
